The results in this text go back to PMC12787074, “Involvement of Multiple Ion Channels and Receptors in Mediating the Insecticidal and Repellent Actions of Limonene” (International Journal of Molecular Sciences, 2025).

Broadly, the EC50 is the midpoint of the concentration-response curve.

Common to all, as to type: cell-based
In assay [1] the target is T1, AaegRdl1-1 (Rdl, resistance to dieldrin GABA receptor) (Aedes aegypti, UniProt Q16896).
T1 construct: AaegRdl1-1 clone expressed in Xenopus oocytes
Briefly: two-electrode voltage clamp in Xenopus oocytes; agonist-evoked chloride current. (In general: Two-electrode voltage clamp is typically applied to oocytes expressing channels or transporters.)

For assay [2], the target named is T1, AaegRdl1-1 (Rdl, resistance to dieldrin GABA receptor). Briefly: two-electrode voltage clamp in Xenopus oocytes; potentiation of […] GABA current.
For assay [3] the target is unchanged. The assay is described as follows: two-electrode voltage clamp in Xenopus oocytes; block of GABA current.

T1 sequence (Q16896 entry or part of it): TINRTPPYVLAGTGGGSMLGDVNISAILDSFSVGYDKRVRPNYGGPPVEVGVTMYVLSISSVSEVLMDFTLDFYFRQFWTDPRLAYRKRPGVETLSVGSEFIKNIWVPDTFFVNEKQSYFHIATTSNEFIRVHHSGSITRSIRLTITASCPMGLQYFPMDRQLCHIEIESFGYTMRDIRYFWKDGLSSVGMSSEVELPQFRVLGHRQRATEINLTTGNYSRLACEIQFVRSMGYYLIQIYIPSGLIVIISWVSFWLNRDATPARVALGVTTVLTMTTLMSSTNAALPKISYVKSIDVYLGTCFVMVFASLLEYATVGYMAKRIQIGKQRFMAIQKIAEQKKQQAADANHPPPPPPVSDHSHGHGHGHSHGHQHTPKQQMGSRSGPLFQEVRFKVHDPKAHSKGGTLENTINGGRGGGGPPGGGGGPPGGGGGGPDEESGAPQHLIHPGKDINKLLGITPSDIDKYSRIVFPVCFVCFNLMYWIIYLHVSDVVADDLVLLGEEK

In assay [1], `NCCCC(=O)O` [GABA] had a 50% effective concentration (EC50) of 204 ± 18.3 µM. Take `C=C(C)[C@H]1CC=C(C)CC1` [limonene]: the EC50 in assay [2] stood at 43.3 ± 4.6 µM.

With `N#Cc1nn(-c2c(Cl)cc(C(F)(F)F)cc2Cl)c(N)c1[S+]([O-])C(F)(F)F` (stereo not drawn) [fipronil], the “two-electrode voltage clamp in Xenopus oocytes; block of GABA current” value in assay [3] is reported as “IGABA was blocked by the application of a positive control, fipronil, as expected (Supplementary Figure S2)”.
